The text below walks through data of patent US11130743B2, “Heterocyclic ligands of PAR1 and methods of use” (Marquette University, priority 2019, dated 2021).

Data set [1] addresses T1, peripheral benzodiazepine receptor (PBR) (Rattus norvegicus, UniProt P16257).
T1 construct: Psychoactive Drug Screening Program (PDSP)
Nature of the data set: PDSP off-target radioligand binding, PBR. Particulars: PDSP profiling.

In data set [2] the test system is tissue factor (TF) expression. Nature of the data set: qPCR assay of TNF-α induced tissue factor (TF) expression in HUVEC. Particulars: 10 μM inhibitor, TNF-α 25 ng/mL, mRNA at 4 h. It is filed as cell-based, human. As to the method:
FIG. 6 is a graph depicting results of a qPCR assay (n=3) measuring the inhibition of TNF-α (25 ng/mL) induced tissue factor (TF) expression in HUVEC after treatment with ML161 and NRD-21 (10 μM). Inhibitors were added at t=0, TNF-α was added at t=1 h, and mRNA was measured at t=4 h.
To this end, we performed a qPCR assay measuring the expression of tissue factor (TF) in endothelial cells (HUVEC) in response to the inflammatory cytokine Tumor Necrosis Factor-alpha (TNF-α). TF has been long established to mediate the pro-inflammatory and pro-coagulant effects^27 of TNF-α^28,29 and endotoxins,^30 and unnatural TF expression is therefore the driver of disseminated intravascular coagulation (DIC) observed under conditions of cancer or sepsis.^31 We measured the level of TF mRNA 4 h after treatment with ML161 or NRD-21 followed by the addition of TNF-α (FIG. 6).

A further data set has as its system human washed platelets. Nature of the data set: human platelet aggregation assay with PAR1/2 agonist SFLLRN-NH2. It is filed as cell-based. To be noted: parmodulins at 10 μM, SFLLRN-NH2 (5 μM). The protocol:
FIGS. 5A-5B depicts results of a human platelet aggregation assay of A) ML161 (10 μM, red trace) and B) NRD-21 (10 μM, red trace) in the presence of the PAR1/2 agonist SFLLRN-NH2 ([…]). Blue traces=DMSO.
Next, an assay was performed to measure the ability of NRD-21 to inhibit platelet aggregation. PAR1 is highly expressed in platelets, and its activation leads to aggregation and coagulation. The platelet aggregation assay was performed with ML161 and NRD-21. In both cases, human washed platelets were incubated with parmodulins at 10 μM, then the PAR1/2 agonist SFLLRN-NH2 (5 μM) was added. (FIG. 5).

The test system of the next data set is hepG2. The data set can be described thus: toxicity in a human cell line (hepG2). Format: cell-based.
Data set [3] in a line: kinetic aqueous solubility assay. Format: physicochemical. Particulars: aqueous solution with 2.5% DMSO.
Data set [4] addresses T2, serotonin transporter (SERT) (Homo sapiens, UniProt P31645).
T2 construct: Psychoactive Drug Screening Program (PDSP)
The data set can be described thus: PDSP off-target radioligand binding, SERT.

Data set [5] concerns the target T3, PAR1 (Homo sapiens, UniProt P25116).
T3 construct: endogenous in cells; host or cells: EA.hy926 endothelial cells
T3 sequence (P25116 22-425): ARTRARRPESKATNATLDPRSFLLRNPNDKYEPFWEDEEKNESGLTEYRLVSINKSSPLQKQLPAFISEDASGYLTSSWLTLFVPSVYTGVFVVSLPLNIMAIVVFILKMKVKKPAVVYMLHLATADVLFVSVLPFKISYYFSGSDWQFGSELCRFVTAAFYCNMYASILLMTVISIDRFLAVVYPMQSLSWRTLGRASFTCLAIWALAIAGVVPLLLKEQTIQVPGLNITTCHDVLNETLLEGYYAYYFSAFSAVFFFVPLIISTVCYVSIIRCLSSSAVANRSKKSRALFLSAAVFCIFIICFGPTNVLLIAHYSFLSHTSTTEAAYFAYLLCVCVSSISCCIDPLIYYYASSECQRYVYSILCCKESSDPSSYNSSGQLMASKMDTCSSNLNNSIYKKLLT
Nature of the data set: PAR1 (TFLLRN-NH2)-driven intracellular calcium mobilization (iCa2+) assay with Ea.hy926 cells. Format: cell-based. Particulars: for iCa2+ assay pIC50 / IC50: 5 μM TFLLRN-NH2, EA.hy926 cells, curves fitted to 3 wells per concentration; for inhibition at 10 µM: EA.hy 926, 10 μM compound, 5 μM TFLLRN-NH2, adherent EA.hy926 endothelial cells, n=4 wells, ± SEM, read-out: iCa2+ assay % Inhib; for IC50: read-out: iCa2+ assay pIC50 (converted). The protocol: FIGS. 1A-1D depicts concentration-response curves for PAR1 antagonists in the TFLLRN-NH2-mediated (5 μM) intracellular calcium mobilization (iCa^2+) assay with Ea.hy926 cells: A) 35 (VAK-7), B) 39 (NRD-23), C) 9 (NRD-25), D) 38 (NRD-21). Cells were loaded with the calcium-binding dye Fluo-4/AM, and changes in calcium concentration were measured with a plate reader.
Our interest in measuring the effects of parmodulins in endothelial cells led us to develop a protocol for an […] calcium mobilization (iCa^2+) assay using adherent Ea.hy926 cells in 96 well plates.^24 This assay also offers higher throughput and lower variability than the platelet P-selectin assay, so we have utilized it as our primary assay for our ongoing studies. Compounds were screened in 96 well plates at a concentration of 10 μM, using the PAR1 tethered ligand peptide TFLLRN (5 μM) as agonist.
The intracellular calcium mobilization assay was performed with Ea.hy926 cells according to our published protocol (Bioorg. Med. Chem. 2018, 9, 2514-2529), using TFLLRN-NH2 as PAR1 agonist.
^aAssays were performed with adherent EA.hy926 endothelial cells. % Inhibition was measured at 10 μM with 5 μM TFLLRN-NH2 and n=4 wells, unless otherwise noted, with standard error of the mean (SEM) provided. pIC50s (-logIC50S) were estimated from curves fitted to measurements on 3 separate wells for each concentration, using 4-variable non-linear regression in GraphPad Prism v.6.

The next data set is described as follows: human plasma stability. It is filed as in vitro ADME. Particulars: after 4 h in human plasma. An excerpt: FIG. 8. Human plasma stability of ML161 (left) and NRD-21 (right). Points indicate the natural logarithm of the average concentration of compound remaining, with 3 replicates at each time point.
Data set [6] is described as follows: stability in human liver microsomes. Format: in vitro ADME. To be noted: 1 h.
A short description of the next data set: mouse plasma stability. Particulars: after 4 h in mouse plasma. Format: in vitro ADME. The protocol:
The term “plasma stability” as used herein refers to the ability of the compound to remain intact after incubation with plasma, for example, mouse plasma or human plasma, after a certain period of time. For example, the compounds of the present invention (e.g., compounds of formula I) have a greater half-life for plasma stability than prior compounds (for example, greater half-life stability than ML161). Methods of determining the plasma stability of the compounds are known in the art. For example, one can measure the amount of compound remaining by HPLC after a 4 h incubation in plasma, or if multiple time points are taken, a half-life for plasma stability can be calculated. As described in the Examples and Table 5, the % compound remaining after 4 h-incubation in mouse plasma is substantially better than the compounds of the prior art (e.g., ML161). For example, increased plasma stability can be at least 20% of the compound remains after 4 hour incubation in plasma, alternatively at least 30% of the compound remains after 4 hour incubation in plasma.
We measured its stability and a number of parameters relevant to its use as an in vivo probe (Table 5, FIG. 7). Importantly, NRD-21 is much more plasma stable than ML161. After 4 h in mouse plasma, 32% of NRD-21 remained, while ML161 was less than 1%.

The subject of data set [7] is necrosis of coronary tissue. To be noted: mouse MI model, reference 23; cited from earlier work.
The conditions of data set [8]: species not stated in b8; mouse plasma; reference 20; cited from earlier work.
For data set [9], the target named is T3, PAR1. Particulars: from reference 24; cited from earlier work.

Molecules are shown by their SMILES. Values after ≈ are worked out from the molar mass of the structure shown.

T2 sequence (P31645 whole entry, species assumed): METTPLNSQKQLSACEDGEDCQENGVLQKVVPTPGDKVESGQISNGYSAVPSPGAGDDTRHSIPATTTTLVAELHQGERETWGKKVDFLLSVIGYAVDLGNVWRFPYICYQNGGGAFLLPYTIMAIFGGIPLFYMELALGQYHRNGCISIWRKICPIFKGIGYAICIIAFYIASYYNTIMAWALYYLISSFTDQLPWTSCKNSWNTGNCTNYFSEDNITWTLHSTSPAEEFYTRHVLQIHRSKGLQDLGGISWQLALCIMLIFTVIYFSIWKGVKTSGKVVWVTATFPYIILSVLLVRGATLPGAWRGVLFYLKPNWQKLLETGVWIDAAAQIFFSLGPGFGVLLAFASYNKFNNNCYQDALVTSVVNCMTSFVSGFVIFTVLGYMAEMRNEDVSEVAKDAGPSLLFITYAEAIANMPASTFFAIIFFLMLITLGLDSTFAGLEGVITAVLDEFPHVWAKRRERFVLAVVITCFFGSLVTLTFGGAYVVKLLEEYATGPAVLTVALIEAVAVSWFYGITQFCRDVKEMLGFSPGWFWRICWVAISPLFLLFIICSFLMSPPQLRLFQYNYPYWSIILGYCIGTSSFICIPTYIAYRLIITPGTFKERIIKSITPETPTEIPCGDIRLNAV

On to `O=C(Nc1cccc(NC(=O)c2ccccc2Br)c1)c1cnco1` [Compound 5, N-[3-(2-bromobenzamido)phenyl]-1,3-oxazole-5-carboxamide], for which the “effect on radioligand binding to PBR” value in [1] is “inhibition of binding”. The “TF mRNA level after TNF-α” value in data set [2] was “dropping TF RNA levels to below baseline levels”. Besides, the “inhibition of platelet aggregation” value in the data set with human washed platelets is “Complete inhibition of platelet aggregation”. Moreover, in the data set on hepG2, the “toxicity in hepG2” value is “no measurable toxicity”. Also, the concentration in solution in [3] (solubility) came to 17 µM (≈ 6.57 µg/mL). Further, the “effect on SERT in radioligand binding profiling” value in [4] is listed as “activation”. Moreover, on PAR1 [5], the “mode of action at PAR1” value is reported as “selective negative allosteric modulator of PAR1”, the “iCa2+ assay pIC50” value was found to be 6.3 ± 0.1 and the inhibition at 10 µM stood at 59 ± 13%. The “% compound remaining in human plasma” value in “human plasma stability” is on record as 97%. Further, the “stability in the presence of human liver microsomes” value in data set [6] is given as “no apparent degradation after 1 h”. The “% compound remaining in mouse plasma” value in “mouse plasma stability” is reported as 32%.

Turning to `O=C(Nc1cccc(NC(=O)c2ccccc2Br)c1)c1cocn1` [Compound 6, N-[3-(2-bromobenzamido)phenyl]-1,3-oxazole-4-carboxamide], on PAR1 [5], the “iCa2+ assay pIC50” value worked out at 6.4 ± 0.1 and the inhibition at 10 µM is 82 ± 1%.

As to `O=C(Nc1cccc(NC(=O)c2ccccc2Cl)c1)c1cnco1` [Compound 7, N-[3-(2-chlorobenzamido)phenyl]-1,3-oxazole-5-carboxamide], at PAR1 [5], the IC50 is 398 nM and the inhibition at 10 µM amounted to 66 ± 13%.

As to `O=C(Nc1cccc(NC(=O)c2ccccc2Br)c1)c1cncs1` [Compound 8, N-[3-(2-bromobenzamido)phenyl]-1,3-thiazole-5-carboxamide], on PAR1 [5], the IC50 is 93.3 nM and the inhibition at 10 µM is 56 ± 6%.

`O=C(Nc1cccc(NC(=O)c2ccccc2Br)c1)c1ccoc1` [Compound 9, N-[3-(2-bromobenzamido)phenyl]furan-3-carboxamide]: at PAR1 [5], the IC50 is 40.7 nM and the inhibition at 10 µM was determined as 97 ± 13%.

Consider `O=C(Nc1cccc(NC(=O)C2CCCO2)c1)c1ccccc1Br` (centres unmarked) [Compound 10, N-[3-(2-bromobenzamido)phenyl]oxolane-2-carboxamide], for which the inhibition at 10 µM at PAR1 [5] was found to be 42 ± 3%.

For `O=C(Nc1cccc(NC(=O)C2CCOC2)c1)c1ccccc1Br` (centres unmarked) [Compound 11, N-[3-(2-bromobenzamido)phenyl]oxolane-3-carboxamide], the inhibition at 10 µM on PAR1 [5] is 44 ± 2%.

Consider `CCCC(=O)Nc1cccc(NC(=O)c2ccccc2Br)c1` [ML161, reference compound], for which, in [7], the “minimizing necrosis of coronary tissue” value is reported as “highly effective at minimizing necrosis of coronary tissue”. Besides, in data set [1], the “effect on radioligand binding to PBR” value is “inhibition of binding”. Further, the “TF mRNA level after TNF-α” value in data set [2] is reported as “blocked the ˜3-fold increase in TF expression”. Also, the “inhibition of platelet aggregation” value with human washed platelets is listed as “Complete inhibition of platelet aggregation”. For the same molecule, the stability in plasma result in data set [8] is on record as “low stability in plasma”. The “effect on SERT in radioligand binding profiling” value in [4] is “activation”. Besides, the “mode of action at PAR1 signaling via Gq” value at PAR1 [9] was “selective, reversible, and allosteric inhibitors (negative allosteric modulators)”. Besides, the “% compound remaining in human plasma” value in the data set “human plasma stability” turned out to be 79%. The “stability in the presence of human liver microsomes” value in data set [6] is on record as “excellent stability”. Besides, the “% compound remaining in mouse plasma” value in “mouse plasma stability” was “less than 1%”.
